Results published in ChEMBL document CHEMBL1157390, “Aplysinoplides A-C, cytotoxic sesterterpenes from the marine sponge Aplysinopsis digitata” (J Nat Prod, 2008).
In brackets after ≈: the same amount, converted by molar mass. Activity calls are given as the source filed them. The calls are words filed in the database; no cut-off is given here.

Experiments:
[1] = molecular target: Phospholipase A2 (Bos taurus) (UniProt P00593); assay: Inhibition of bovine pancreas PLA2 at 100 uM by pH-stat assay
P388 = assay: Cytotoxicity against mouse P388 cells after 96 hrs by MTT assay; format: functional, cell-based; settings: P388, 96 h

Chain of Phospholipase A2 (Bos taurus) (P00593 whole entry): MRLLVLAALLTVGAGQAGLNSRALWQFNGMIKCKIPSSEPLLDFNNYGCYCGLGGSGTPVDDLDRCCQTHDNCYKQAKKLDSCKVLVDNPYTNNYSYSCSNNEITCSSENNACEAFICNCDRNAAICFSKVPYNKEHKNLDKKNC

Row | Structure (SMILES) | Activity [1] | IC50 (P388)
1 | CC1=C(CC/C(C)=C/CCC2=CC[C@H](C3=CC(=O)O[C@H]3O)O[C@H]2O)C(C)(C)CCC1 | Active | –
2 | CC1=C(CC/C(C)=C/CC/C(=C\C=C\C2=CC(=O)OC2O)CO)C(C)(C)CCC1 (stereo unspecified) [APLYSINOPLIDE A] | inactive | 0.45 µg/mL (≈ 1.12 µM)
3 | CC1=C(CC/C(C)=C/CC/C(=C\CC(O)C2=CC(=O)OC2O)CO)C(C)(C)CCC1 (stereo unspecified) [APLYSINOPLIDE B] | inactive | 0.45 µg/mL (≈ 1.08 µM)
4 | C/C(=C\CC/C(=C/CC1OC(=O)C=C1CO)CO)CCC1C(C)(C)CCCC1(C)O (stereo unspecified) [APLYSINOPLIDE C] | – | 11 µg/mL (≈ 26.2 µM)
